The record followed here is a melting point compilation (Tetko et al.; mined from patent text by program, amines drawn as free bases though some values may be those of a salt).

Bounds are passed on as bounds.

Turning to `Cc1cc(-c2nnc3c4ccccc4c(OCc4ccc5ccccc5n4)nn23)no1`, the melting point was in the range of 223 to 225 °C.
Next, `O=C1C2CC2C(=O)N1CCC1=CCCCC1` (stereo not drawn): 60 to 61 °C; `O=C1Nc2cccc(Cl)c2C(=O)N2CC[C@@H]12`: 225 to 228 °C; `CC12CC(c3ccc(N)cc3)(C1)C(=O)NC2=O`: 216 °C.
The result for `COc1cc(OC)nc(NC(=O)NS(=O)(=O)c2ccccc2C(CF)OC(C)=O)n1` (stereo not drawn) reads 176 to 178 °C.
As for `CSCC(=O)[C@H](CC(C)C)NC(=O)[C@H](CC(C)C)NC(=O)OCc1ccccc1`, the melting point lay in the range of 96 to 97 °C.
The result for `CC=Cc1cn(C2CC(O)C(CO)O2)c(=O)[nH]c1=O` (stereo not drawn) reads 178 °C.
`CC(C)C(C(=O)O)c1ccc([N+](=O)[O-])cc1` (stereo not drawn) registered a melting point of 124 to 127 °C.
On to `C=C1C=C(Oc2cc(C(=O)O)ccc2OC)C1(F)F`, for which the melting point was in the range of 163 to 165 °C.
Next, `CC(=O)OC1CSC(Oc2ccnc(-c3ccc(F)cc3C)c2)C(OC(C)=O)C1OC(C)=O` (stereo not drawn): 137 °C.
Next, `c1ccc2[nH]c(Cn3ccnc3)nc2c1`: 198 to 200 °C; `COC(=O)CCSC(SCCC(=O)OC)c1cccc(C=Cc2nc3cc(Cl)ccc3o2)c1`: 66 to 67 °C; `CNC(=S)C1=CC(CF)(CF)Oc2ccc(C(F)(F)C(F)(F)F)cc21`: 148 to 149 °C.
`Cn1c(COc2ccc(CC3SC(=O)NC3=O)cc2)nc2ccc(Oc3cccc(NC(=O)NC45CC6CC(CC(C6)C4)C5)c3)cc21` (stereo not drawn) had a melting point of 227 to 231 °C.
Next, `Cc1nnc2c(NC(N)=O)cc3cc(-c4ccc(CN5CCCCC5)cc4)ccc3n12`: more than 260 °C; `Cc1cc([N+](=O)[O-])ccc1N1CCN(C(=O)OC(C)(C)C)CC1`: 122 to 123 °C; `CN(C)C=Nc1c(Cl)cc(N=Cc2ccc(N(C)C)cc2Cl)cc1Cl`: 139 to 140 °C.
Consider `COc1ccccc1-c1nc(=S)n(Cc2ccccc2)[nH]1`, for which the melting point was 142 to 144 °C.
The result for `CCc1nc(OC)c(NC(=O)N2CCN(c3cc(F)cc(F)c3)CC2)cc1C(=O)Nc1cc(CO)cc(Nc2c3ccccc3nc3ccccc23)c1` reads 184 to 186 °C; that for `CC1CC(=O)NN=C1c1ccc(-n2ccc(C=O)c2)cc1` (stereo not drawn), 191 to 192 °C; that for `CC(=O)NC[C@H]1CN(c2ccc(N3CCN(CCCO)CC3)c(F)c2)C(=O)O1`, 154 to 156 °C.
Molecule `CCCCCCCCC(=O)OCc1c(Cl)ccc2cc(Cl)cnc12` displayed a melting point of 92 °C.
Next, `Cc1cccc2nc(CSc3ncnc4[nH]cnc34)n(-c3ccccc3Cl)c(=O)c12`: 228 to 230 °C; `CC(C)(C)OC(=O)NCC12CN(c3c(F)cc4c(=O)c(C(=O)O)cn(C5CC5)c4c3Cl)CC1CCO2` (stereo not drawn): 111 to 113 °C.
`CC(C)Oc1cc(CCC(=O)NS(=O)(=O)C2CCCCC2)n(Cc2ccc(Cl)cc2Cl)n1` yielded a melting point of 137 to 138 °C.
As for `Fc1cccc(F)c1-c1ccncc1`, the melting point was in the range of 113 to 114 °C.
`COCOc1ccc(C=CC(C)=O)cc1OC` had a melting point of 73 to 75 °C.
Next, `CC(C)Oc1cc(N2CCC(C(F)(F)F)CC2=O)c(F)cc1Cl` (stereo not drawn): 98 to 102 °C; `CCCCCCCCCCCCOc1ccc(C(=O)c2ccc(Cl)cc2)c(O)c1`: 61 to 63 °C; `N#Cc1c(F)ccc(OCc2nc3cc(Cl)ccc3s2)c1F`: 145 to 147 °C.
Consider `COc1ccccc1OCC(O)CNc1nc(-c2ccccc2)nc2ccccc12` (stereo not drawn), for which the melting point was in the range of 138 to 140 °C.
`O=C1CCC(C2CCCCC2)CC1C(=S)Nc1ccccc1` (stereo not drawn) showed a melting point of 150 °C.
Next, `N#Cc1ccc(N2C(=O)C=C(O)C2Cc2ccccc2)cc1Cl` (stereo not drawn): 188 to 189 °C.
Next, `CCCNc1cccc(-c2ccc(C(=O)O)c(=O)[nH]2)c1`: 251 to 254 °C; `CC(=O)N1CCN(c2ccc(Nc3nc(N)c(C(=O)c4sccc4C)s3)cc2)CC1`: 290 to 292 °C.
With `O=c1ccc(-c2ccnnc2)c[nH]1`, the melting point was more than 250 °C.
The result for `COc1ccc(CSCCNC(=O)c2c(Cl)cccc2Cl)cc1` reads 80 to 81 °C; that for `CCOCCOc1cc(-n2nc(C)c(Cl)c2C)c(F)cc1C#N`, 86 °C; that for `COC(=O)c1ccccc1/C=C/CO`, 75 to 80 °C.
The result for `CCOP(=O)(/C=C/c1ccc(C(=O)OC)cc1)OCC` reads 60 to 65 °C; that for `CCC(C)(CC)C(=O)O[C@H]1CCC=C2C=C[C@H](C)[C@H](CC[C@@H]3C[C@@H](O)CC(=O)O3)[C@H]21`, 61 to 64 °C; that for `Cc1cc(C2CCN(S(=O)(=O)C3(C(=O)NO)CCOCC3)CC2)ccc1-c1cccc(OCCO)n1`, 193 to 194 °C.
`CCn1cc(C(=O)O)c(=O)c2cc(F)c(N3C[C@@H](N)[C@@H](C)C3)c(Cl)c21` (relative stereo) had a melting point of 222 to 224 °C.
The result for `CC(=O)Nc1c(C#N)cnn1-c1c(Cl)cc(Cl)cc1Cl` reads 163 to 164 °C; that for `CCCCCCCCCCCCCCCC(=O)OCC(F)(F)Cn1nc(C)c(-c2ccc3c(c2)NC(=O)CO3)c1-c1ccc(F)cc1`, 106 °C; that for `O=c1c(OC(F)F)cn(-c2cccc(C(F)(F)F)c2)nc1-c1ccnn1-c1ccccc1`, 132 to 134 °C.
Next, `Cc1nccn1-c1nc(-c2ccc(Cl)cc2)c(CCCO)o1`: 128 to 129 °C; `CCCc1nc2c(N)nc3cc(Oc4ccc([N+](=O)[O-])cc4)ccc3c2n1CC(C)C`: 209 to 211 °C.
The result for `Fc1ccc(CN2CC=C(/C=C/c3ccccc3)CC2)cc1` reads 115 to 117 °C; that for `CCOC(=O)CC(=O)Cc1ccc(OC)c([N+](=O)[O-])c1`, 87 to 88 °C.
Turning to `CC(=O)NCCS(=O)C1(Cl)CC2CC(=O)N2C1C(=O)OCc1ccccc1` (stereo not drawn), the melting point lay within 89 to 93 °C.
The result for `O=C(NCCCCC1CCSS1)N1CCSCC1` (stereo not drawn) reads 80 to 81 °C.
The molecule `CCc1nc2c(C)cc(C)nc2n1Cc1ccc(C(c2ccccc2)C(C(=O)O)C(=O)O)cc1` (stereo not drawn) gave a melting point of 137 to 142 °C.
The result for `CN(C)CCNc1ccc(NCCN(C)C)c2c1C(=O)c1ccc(O)c(O)c1C2=O` reads 133 to 135 °C; that for `O=C1c2cccc3cccc(c23)C(O)N1CCN1CCC(Cc2ccccc2)CC1` (stereo not drawn), 153 to 155 °C.
Next, `COc1cccc2c1OCC(/C=C/C=C/C=C/C(=O)O)=C2`: 226 to 228 °C; `COC(=O)c1c(S(=O)C(C)C)c2cc(OC)ccc2n1C` (stereo not drawn): 130 to 134 °C; `O=C1c2cc(Cl)ccc2N(N2CCOCC2)C2=NCCN12`: 238 to 239 °C.
`CS(=O)(=O)c1ccc(C2=C(I)C(=O)C3(CCOCC3)O2)cc1` came in with a melting point of 210 to 213 °C.
Next, `N#Cc1c(N2CCc3ccccc3CC2)[nH]c(=O)[nH]c1=O`: 183 to 186 °C; `CC(C#N)(COc1ccccc1C(F)(F)F)NC(=O)c1ccc(C(=O)c2ccccc2)cc1` (stereo not drawn): 121 to 123 °C.
In the case of `CCCn1c(=O)c2[nH]c(C3CCCO3)nc2n(CCC)c1=O` (stereo not drawn), the melting point was 155 to 158 °C.
The result for `COCc1cc(C(C)(C)C)cc(C(C)(C)C)c1O` reads 36 to 39 °C; that for `CS(=O)(=O)N1CCC(Nc2nc(CCC(F)(F)F)nc(Nc3ccc(F)c(Cl)c3)n2)CC1`, 192 to 193 °C.
The result for `COc1ccc(N2CCN(c3c(C)c(C)c4c(c3C)C(N3CCCC3)C(C)(C)O4)CC2)cc1OC` (stereo not drawn) reads 128 to 130 °C; that for `Nc1nc(N)nc(-c2csc(-c3ccc(C(F)(F)F)cc3)n2)n1`, more than 260 °C; that for `Cc1ccc(NC(=O)c2ccc(C(=O)Nc3ccccc3NC(=O)OC(C)(C)C)nc2)cc1Nc1nccc(-c2cccnc2)n1`, 186 to 187 °C.
Next, `CN1CCN(CCC#Cc2cc3c(Nc4ccc5[nH]ccc5c4)c(C#N)cnc3s2)CC1`: 195 to 197 °C; `CCn1nnn(-c2cc(OCOC)c(Cl)cc2Cl)c1=O`: 112 to 113 °C; `O=C(O)Cc1ccc(-n2cc(Cl)cn2)c(Cl)c1`: 132 to 133 °C.
`CCn1c(=O)c2[nH]c(/C=C/c3cc(OC)c4c(c3)OCO4)nc2n(CC)c1=O`: the melting point was more than 270 °C.
For `Cc1cccc2c1CCCCC2=O`, the melting point fell in the range of 54 to 55 °C.
The result for `CCCc1c(C(=O)C(C)C)c2ccc(C(N)=O)cc2n1Cc1ccccc1Br` reads 173 to 174 °C; that for `CCOC(COc1cccc2c1OCCO2)OCC`, 73.1 °C; that for `O=C(c1ccccc1)c1sc2cc(O)ccc2c1-c1ccccc1`, 187 to 190 °C.
Next, `Cc1nc(-c2ccc(Cl)cc2)c(CCC(=O)O)o1`: 211 to 212 °C; `CC1(C)CC(=O)c2c(ncc3[nH]c4cc(Cl)ccc4c23)C1`: 257 to 259 °C; `COc1cc2c(cc1OC)C(=O)CS[C@@H](C(=O)O)C2`: 223 to 224 °C.
Next, `C[C@@H](NC(=O)OCc1ccccc1)[C@H](O)C(=O)O`: 156 to 158 °C; `COc1c2c(c(OC)c(OC)c1OC)CC(CCCCCCCCOC(C)=O)C2`: 47 to 48 °C.
Consider `O=C1Nc2c(cc(F)c(F)c2F)C1=O`, for which the melting point was 193 to 194 °C.
The molecule `C[C@@]1(CN2CCN(C(=O)OCc3ccc(F)cc3)CC2)Cn2cc([N+](=O)[O-])nc2O1` returned a melting point of 167 to 169 °C.
The result for `C[C@H]([C@](O)(Cn1cncn1)c1ccc(F)cc1F)S(=O)(=O)N1CCCC1` reads 149 to 150 °C.
`Clc1ccc2c(c1)CCc1cccnc1C2=C1CCN(Cc2cccnc2Cl)CC1` registered a melting point of 56.6 to 60.2 °C.
`NC(=O)c1c(C(=O)O)cnn1-c1ccc(Cl)cc1` came in with a melting point of 249 to 250 °C.
Regarding `CCOC(=O)C=C1CCC(C#N)(c2ccc(OC)c3c2OCCO3)CC1` (stereo not drawn), the melting point lay in the range of 110 to 112 °C.
The molecule `CC(C)(C)c1nc(CN2C(=O)C3(COc4cc5c(cc43)OCO5)c3ccccc32)no1` (stereo not drawn) displayed a melting point of 183 to 185 °C.
On to `CC(C)(C)NC(=O)C(O)c1cccc(Cl)c1` (stereo not drawn), for which the melting point was in the range of 93 to 99 °C.

The term melting point denotes the temperature of the solid-liquid transition.
